# In US8653012B2, “Mutual solvent-soluble and/or alcohol blends-soluble particles for viscoelastic surfactant fluids” (Baker Hughes Incorporated, priority 2008, dated 2014):
# How the values were obtained:
# [1] = Water solubility of dicarboxylic acid agents; assay type: physicochemical
# From the text: (§1) Two different dicarboxylic particles were used in the Examples herein. […] LCA141 is dodecanedioic acid (DDDA) (Agent B in U.S. Pat. No. 6,994,166), also from INVISTA.
# [2] = Solubility of dicarboxylic acid agents in various solvents; assay type: physicochemical; conditions: 183° F. (84° C.)
# From the text: as §1
smiles,measurement,setting,value
"O=C(O)CCCCCCCCCCC(=O)O [LCA141, dodecanedioic acid]",Water solubility,[1]; 70° F. (21° C.),Very low (70° F. (21° C.))
same,Water solubility,[1]; 140° F. (60° C.),0.012% (140° F. (60° C.))
same,Water solubility,[1]; 176° F. (80° C.),0.01% (176° F. (80° C.))
same,Water solubility,[1]; 212° F. (100° C.),0.04% (212° F. (100° C.))
same,"Solubility, %",[2]; Blend C (50:50 v/v isopropanol and oxyalkylated alcohol mixture),6.99 (183° F. (84° C.)) %
same,"Solubility, %",[2]; Ethylene glycol monobutyl ether (EGMBE),5.89 (183° F. (84° C.)) %
same,"Solubility, %",[2]; Isopropanol,>9.73 (183° F. (84° C.)) %
